Assay results: patent publication US11492340B2 (priority 2017, dated 2022)
Values joined by “and” are separate entries in the source; they are usually repeats but may differ in a detail not shown here. Equal values may be shown once. Read-outs that look alike come from different tables or passages of the source.

Experiments:
[1] = molecular target: T1, isopropyl phosphate-aged eeAChE (Electrophorus electricus, UniProt O42275); assay type: biochemical, electric eel
T1 construct: purchased Sigma Aldrich

[2] = molecular target: T2, methylphosphonate-aged AChE (Electrophorus electricus, UniProt O42275); assay type: biochemical, electric eel
T2 construct: purchased Sigma Aldrich

[3] = molecular target: T3, methylphosphonate-aged eeAChE (Electrophorus electricus, UniProt O42275); assay type: biochemical, electric eel; conditions: for screening efficacy, relative activity (FIG. 3B), in words: pH 8
T3 construct: purchased Sigma Aldrich

[4] = molecular target: T1, isopropyl phosphate-aged eeAChE; assay type: biochemical, electric eel; remark: listed apart in the source
[5] = molecular target: T3, methylphosphonate-aged eeAChE; assay: biochemical; parameters: species or system electric eel
[6] = molecular target: T1, isopropyl phosphate-aged eeAChE; assay: biochemical; parameters: species or system electric eel
[7] = molecular target: T1, isopropyl phosphate-aged eeAChE; assay type: biochemical, electric eel; conditions: pH 8
[8] = molecular target: T3, methylphosphonate-aged eeAChE; assay type: biochemical, electric eel; conditions: pH 8
[9] = molecular target: T3, methylphosphonate-aged eeAChE; assay type: biochemical, electric eel
[10] = molecular target: T1, isopropyl phosphate-aged eeAChE; assay type: biochemical, electric eel; remark: listed apart in the source
[11] = molecular target: isopropyl phosphate-aged (DFP-treated) recombinant huAChE (Homo sapiens, UniProt P22303); assay type: biochemical; conditions: pH 9
physchem = conditions: pH 6

T2 sequence (O42275 24-633): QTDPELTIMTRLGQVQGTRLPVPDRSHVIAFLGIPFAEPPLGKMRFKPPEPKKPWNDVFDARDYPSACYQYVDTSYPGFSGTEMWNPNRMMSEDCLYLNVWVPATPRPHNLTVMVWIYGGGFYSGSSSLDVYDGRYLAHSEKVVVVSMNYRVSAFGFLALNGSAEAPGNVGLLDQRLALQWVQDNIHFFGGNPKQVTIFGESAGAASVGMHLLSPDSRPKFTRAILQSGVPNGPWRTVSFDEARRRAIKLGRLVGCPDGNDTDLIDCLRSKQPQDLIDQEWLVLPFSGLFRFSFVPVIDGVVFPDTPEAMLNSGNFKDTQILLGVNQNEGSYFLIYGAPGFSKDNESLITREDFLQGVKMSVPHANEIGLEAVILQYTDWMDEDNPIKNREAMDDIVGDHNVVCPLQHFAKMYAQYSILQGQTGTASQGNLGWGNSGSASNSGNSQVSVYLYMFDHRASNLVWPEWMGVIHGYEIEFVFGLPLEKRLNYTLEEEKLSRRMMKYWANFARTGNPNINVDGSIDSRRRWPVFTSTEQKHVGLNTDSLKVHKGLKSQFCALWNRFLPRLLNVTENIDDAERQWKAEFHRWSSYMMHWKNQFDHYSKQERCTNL
T1 sequence (O42275 24-633): as above
T3 sequence (O42275 24-633): as above
isopropyl phosphate-aged (DFP-treated) recombinant huAChE, sequence (P22303 32-614): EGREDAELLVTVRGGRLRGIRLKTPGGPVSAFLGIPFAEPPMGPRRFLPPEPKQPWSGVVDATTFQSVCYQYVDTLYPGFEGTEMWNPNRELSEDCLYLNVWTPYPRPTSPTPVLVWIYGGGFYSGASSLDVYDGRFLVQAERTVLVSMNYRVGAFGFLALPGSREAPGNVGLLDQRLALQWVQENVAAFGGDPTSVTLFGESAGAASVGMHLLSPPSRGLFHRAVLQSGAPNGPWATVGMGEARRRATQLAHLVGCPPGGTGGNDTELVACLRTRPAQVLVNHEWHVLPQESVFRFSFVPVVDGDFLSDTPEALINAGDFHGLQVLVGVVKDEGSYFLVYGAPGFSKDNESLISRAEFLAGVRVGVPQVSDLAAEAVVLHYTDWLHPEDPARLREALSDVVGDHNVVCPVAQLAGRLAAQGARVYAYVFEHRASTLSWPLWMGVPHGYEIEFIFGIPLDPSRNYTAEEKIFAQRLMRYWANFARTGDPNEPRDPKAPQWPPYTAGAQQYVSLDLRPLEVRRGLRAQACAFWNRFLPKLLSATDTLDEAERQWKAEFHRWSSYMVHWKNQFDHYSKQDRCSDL

SMILES: C[n+]1ccccc1/C=N/O [2-PAM, 2-pralidoxime, reference compound]
- Percentage of AChE species: Aged [1]: 100%
- Percentage of AChE species: Native [1]: 0%
- Percentage of AChE species: Realkylated [1]: 0%
- Percentage of AChE species: Aged [2]: 100%
- Percentage of AChE species: Native [2]: 0%
- Percentage of AChE species: Realkylated [2]: 0%

SMILES: CCN(CC)Cc1ncccc1O [C7, 2-((diethylamino)methyl)pyridin-3-ol]
- screening efficacy, relative activity (FIG. 3B), in words [3]: highest efficacy among C1 to C7

SMILES: Oc1cccnc1CN1CCCC1 [C8, 2-(pyrrolidin-1-ylmethyl)pyridin-3-ol]
- activity in comparison of scaffolds with pyrrolidine leaving group (M series), in words [3]: only active compound in this comparison
- reactivation (resurrection of AChE activity) [3]: ~2.5%
- screening efficacy, relative activity (FIG. 3B), in words [3]: most potent candidate in this screen
- reactivation (resurrection of AChE activity) [4]: 1.25%
- EC50 [5]: 1.18 mM
- EC50 [6]: 5.87 mM
- apparent reaction rate [7]: 0.20 % per hour
- resurrected relative activity [7]: 20.4% and 30.4%
- apparent reaction rate [8]: 0.32 % per hour
- resurrected relative activity [8]: 32.7%
- Percentage of AChE species: Aged [1]: 84.6%
- Percentage of AChE species: Native [1]: 15.4%
- Percentage of AChE species: Realkylated [1]: 0%
- Percentage of AChE species: Aged [2]: 97.9%
- Percentage of AChE species: Native [2]: 2.1%
- Percentage of AChE species: Realkylated [2]: 0%
- Relative activity (percentage of positive control) ([9]; pH 6): 0.273 ± 0.004%
- Relative activity (percentage of positive control) ([9]; pH 7): 1.24 ± 0.02%
- Relative activity (percentage of positive control) ([9]; pH 8): 8.47 ± 0.17%
- Relative activity (percentage of positive control) ([10]; pH 6): 0.68 ± 0.06%
- Relative activity (percentage of positive control) ([10]; pH 7): 1.04 ± 0.07%
- Relative activity (percentage of positive control) ([10]; pH 8): 3.58 ± 0.33%
- Relative activity (percentage of positive control) ([10]; pH 9): 5.27 ± 0.59%
- aged enzyme resurrected [11]: 18%
- pKa (physchem): 7 to 8
